Reference: patent publication US10294248B2, “Beta-lactamase inhibitors” (VenatoRx Pharmaceuticals, Inc., priority 2013, dated 2019)

What was measured:
[1] = system: E. coli ESBL4 expressing CTX-M-15; experiment: Broth microdilution MIC, E. coli ESBL4 CTX-M-15; format: cell-based; conditions: for MIC of example compound in presence of fixed β-lactam: Fixed CAZ, E. coli ESBL4 CTX-M-15: fixed 4 μg/mL ceftazidime, CAMHB, 16-20 hours at 37° C.
Description: (§1) To determine the ability of test compounds to potentiate the inhibition of the growth of bacterial strains that produce beta-lactamase enzymes, classic cell based broth microdilution MIC assays were employed. Six bacteria strains producing beta-lactamase enzymes were used: E. coli expressing the Class A Extended Spectrum Beta-Lactamase (ESBL) CTX-M-15, E. cloacae expressing the Class C P99, K. pneumoniae expressing the Class A carbapenemase KPC-3, P. aeruginosa expressing the Class B carbapenemase VIM-2, K. pneumoniae expressing the class A carbapenemase KPC-2 and the class B carbapenemase VIM-4, and S. aureus producing the Class A penicillinase PC-1. The assay was conducted in Cation Adjusted Mueller Hinton Broth (CAMHB, BD #212322, BD Diagnostic Systems, Sparks, Md.). Bacteria strains were grown for 3-5 hours in CAMBH broth. Test compounds (Examples 1-30) were added to a microtiter plate in 2-fold serial dilutions in CAMHB in a final concentration range of 32 μg/mL to 0.25 μg/ml. An overlay of CAMHB containing a Beta-lactam was added to the compounds at a final static concentration of 4 μg/ml. […] In addition to the titration of test compounds the MICs of a panel of control beta-lactams is also tested to ensure the strains are behaving consistently from test to test. Once the test compound and antibiotics are added the plates can be inoculated according to CLSI broth microdilution method. After inoculation the plates are incubated for 16-20 hours at 37° C. then the Minimal Inhibitory Concentration (MIC) of the test compound is determined visually.
(§2) Using the methodology described above, examples of the current invention were evaluated for their ability to inhibit the growth of β-lactamase-producing bacteria in the presence of a β-lactam antibiotic.
(§3) Using the methodology described above in EXAMPLE III, exemplary compounds for Formula I or Formula Ia were evaluated for their ability to inhibit the growth of β-lactamase producing bacteria in the presence of a β-lactam antibiotic.

[2] = system: E. cloacae 144200 expressing Class C P99 AmpC; experiment: Broth microdilution MIC, E. cloacae 144200 p99 AmpC; format: cell-based; conditions: for MIC of example compound in presence of fixed β-lactam: Fixed CAZ, E. cl. 144200 p99 AmpC: fixed 4 μg/mL ceftazidime, CAMHB, 16-20 hours at 37° C.
Description: as §1, §2, §3

[3] = molecular target: T1, SHV-5 β-lactamase (Class A ESBL) (Klebsiella pneumoniae, UniProt P0A3M1); experiment: β-Lactamase inhibition, SHV-5; format: biochemical
T1 construct: made in house; host or cells: E. coli BL21(DE3)
Experimental: (§4) For SHV-5, Kpc-2, p99AmpC and OXA-1 β-lactamases, E. coli BL21(DE3) bacterial cells carrying expression plasmids (expressed as native untagged proteins) for the individual β-lactamases were grown in 1 L of Superbroth (Teknova Inc. Hollister, Calif.) supplemented with 100 μg/ml kanamycin selection and 1×5052 (0.5% glycerol, 0.05% glucose and 0.2% α-lactose) at 35° C. for 18-20 hours. Cells were harvested by centrifugation (4,000×g, 4° C., 20 min), resuspended in 50 ml of 10 mM HEPES pH 7.5 ( 1/20 of the initial volume). The cells were lysed by sonication (5 pulses of 45 seconds) at 45 W on ice. The lysates were clarified by centrifugation at 10,000×g for 40 minutes at 4° C. Samples were diluted 5-fold in 50 mM sodium acetate pH 5.0, stored overnight at 4° C., after which they were centrifuged at 10,000×g for 30 minutes to clarify, and filtered through 0.45 μm filters. The samples were loaded onto a 5 ml Capto S sepharose cation exchange column (GE Healthcare) pre-equilibrated with 50 mM sodium acetate pH 5.0. The column was washed with 5 column volumes of 50 mM sodium acetate pH 5.0 to wash out unbound protein and a linear gradient of NaCl (0 to 500 mM) was used to elute the protein (over 16 CV) from the column. Fractions were assayed for β-lactamase activity using Centa (Calbiochem, Gibbstown, N.J.) or Nitrocefin (EMD Millipore chemicals, Darmstadt, Germany) as a reporter β-lactamase substrate for activity in the isolated fractions. Active fractions were pooled, concentrated and further purified by gel filtration chromatography on a Superdex 75 prep grade gel filtration column (GE Healthcare, Piscataway, N.J.) pre-equilibrated in 50 mM Hepes pH 7.5, 150 mM NaCl. Active fractions were pooled concentrated, quantitated by BCA protein determination (Thermo Scientific, Rockford, Ill.), dialyzed into PBS and frozen at −80° C. in 20% glycerol until use.
(§5) An equal volume of diluted enzyme stock was added, and the plates were incubated at 37° C. for 15 min. Nitrocefin was used as substrate for p99 AmpC, VIM-2 and OXA-1 and dispensed into each well at a final concentration of 100 μM. Absorbance at 486 nm was immediately monitored for 10 min using a Biotek Powerwave XS2 microplate spectrophotometer using the GEN5 software package (Biotek Instruments, Winooski Vt.). In an analogous fashion, imipenem was used as substrate for Kpc-2 and Cefotaxime was used for SHV-5, while changes in absorbance upon hydrolysis of the β-lactam ring were monitored at 300 nm and 260 nm respectively in UV-transparent 96-well microtiter assay plates. Maximum rates of hydrolysis were compared to those in control wells (without inhibitors), and percentages of enzyme inhibition were calculated for each concentration of inhibitor. The concentration of inhibitor needed to reduce the initial rate of hydrolysis of substrate by 50% (IC50) was calculated as the residual activity of β-lactamase at 486 nm using GraFit version 7 kinetics software package (Erithacus Software, Surrey, UK).
(§6) Using the methodology described above, examples of the current invention were evaluated for their ability to inhibit β-lactamase enzymes from all four Ambler classifications (A through D). […] NT=Not tested.

[4] = molecular target: T2, KPC-2 β-lactamase (Class A carbapenemase) (Klebsiella pneumoniae, UniProt Q9F663); experiment: β-Lactamase inhibition, KPC-2; format: biochemical; conditions: imipenem substrate, 300 nm; 15 min preincubation at 37° C., PBS pH 7.4
T2 construct: made in house; host or cells: E. coli BL21(DE3)
Experimental: as §4, §5, §6

[5] = molecular target: T3, VIM-2 metallo-β-lactamase (Class B) (Pseudomonas aeruginosa, UniProt Q9K2N0); experiment: β-Lactamase inhibition, VIM-2; format: biochemical; conditions: nitrocefin 100 μM, 486 nm; 15 min preincubation at 37° C., PBS pH 7.4
T3 construct: made in house; host or cells: E. coli BL21(DE3)
Experimental: For Vim-2 metallo β-lactamase, the procedure was identical with the following exceptions, first the protein was not pH adjusted to pH 5 with 50 mM sodium acetate, second, the chromatography step was changed to a 5 ml Q sepharose anion exchange column pre-equilibrated with 50 mM Hepes pH 7.5, and elution of the protein was achieved by a linear gradient of NaCl (0-600 mM). Finally, the VIM-2 purification required a second run (3rd step) on the Q sepharose anion exchange column to achieve acceptable purity (>90%).
as §5, §6

[6] = molecular target: T4, p99 AmpC β-lactamase (Class C) (Enterobacter cloacae, UniProt P05364); experiment: β-Lactamase inhibition, p99 AmpC; format: biochemical
T4 construct: made in house; host or cells: E. coli BL21(DE3)
Experimental: as §4, §5, §6

[7] = molecular target: T5, OXA-1 β-lactamase (Class D oxacillinase) (Escherichia coli, UniProt P13661); experiment: β-Lactamase inhibition, OXA-1; format: biochemical; conditions: nitrocefin 100 μM, 486 nm; 15 min preincubation at 37° C., PBS pH 7.4
T5 construct: made in house; host or cells: E. coli BL21(DE3)
Experimental: as §4, §5, §6

[8] = system: P. aeruginosa Ps296 expressing VIM-2; experiment: Broth microdilution MIC, P. aeruginosa Ps296 VIM-2; format: cell-based; conditions: fixed 4 μg/mL meropenem; CAMHB, 16-20 hours at 37° C.
Description: as §1, §2, §3

[9] = system: K. pneumoniae A-1797 expressing KPC-2 and VIM-4; experiment: Broth microdilution MIC, K. pneumoniae A-1797 KPC-2/VIM-4; format: cell-based; conditions: fixed 4 μg/mL meropenem; CAMHB, 16-20 hours at 37° C.
Description: as §1, §2, §3

[10] = system: S. aureus MSSA-7 producing penicillinase PC-1; experiment: Broth microdilution MIC, S. aureus MSSA-7 PC-1; format: cell-based; conditions: fixed 4 μg/mL piperacillin; CAMHB, 16-20 hours at 37° C.
Description: as §1, §2, §3

[11] = system: K. pneumoniae 156319 expressing KPC-3; experiment: Broth microdilution MIC, K. pneumoniae 156319 KPC-3; format: cell-based; conditions: fixed 4 μg/mL meropenem; CAMHB, 16-20 hours at 37° C.
Description: as §1, §2, §3

T4 sequence (P05364 21-381): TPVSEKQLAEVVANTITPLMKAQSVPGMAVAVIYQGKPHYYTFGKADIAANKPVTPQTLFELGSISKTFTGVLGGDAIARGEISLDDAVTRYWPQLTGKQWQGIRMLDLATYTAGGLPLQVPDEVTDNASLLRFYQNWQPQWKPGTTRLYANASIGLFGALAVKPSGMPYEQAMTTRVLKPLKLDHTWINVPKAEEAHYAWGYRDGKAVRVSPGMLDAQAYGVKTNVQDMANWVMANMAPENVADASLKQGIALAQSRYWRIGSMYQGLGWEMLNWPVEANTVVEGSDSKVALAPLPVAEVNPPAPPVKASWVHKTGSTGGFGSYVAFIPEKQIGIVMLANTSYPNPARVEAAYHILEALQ
T2 sequence (Q9F663 25-293, looked up): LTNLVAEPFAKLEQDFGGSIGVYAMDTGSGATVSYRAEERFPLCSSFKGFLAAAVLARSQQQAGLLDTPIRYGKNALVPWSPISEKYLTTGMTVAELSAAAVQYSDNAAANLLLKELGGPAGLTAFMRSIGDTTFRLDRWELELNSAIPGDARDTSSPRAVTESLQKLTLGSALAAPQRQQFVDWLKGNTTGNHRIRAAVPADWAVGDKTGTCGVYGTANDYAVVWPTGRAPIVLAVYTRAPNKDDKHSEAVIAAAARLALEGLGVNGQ
T1 sequence (P0A3M1 22-286): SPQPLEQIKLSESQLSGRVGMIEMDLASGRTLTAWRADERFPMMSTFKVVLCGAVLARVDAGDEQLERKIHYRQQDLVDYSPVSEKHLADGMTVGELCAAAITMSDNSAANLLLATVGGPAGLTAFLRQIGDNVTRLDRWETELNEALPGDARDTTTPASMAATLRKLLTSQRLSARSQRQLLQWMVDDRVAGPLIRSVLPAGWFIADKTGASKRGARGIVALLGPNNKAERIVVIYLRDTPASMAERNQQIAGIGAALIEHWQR
T5 sequence (P13661 26-276): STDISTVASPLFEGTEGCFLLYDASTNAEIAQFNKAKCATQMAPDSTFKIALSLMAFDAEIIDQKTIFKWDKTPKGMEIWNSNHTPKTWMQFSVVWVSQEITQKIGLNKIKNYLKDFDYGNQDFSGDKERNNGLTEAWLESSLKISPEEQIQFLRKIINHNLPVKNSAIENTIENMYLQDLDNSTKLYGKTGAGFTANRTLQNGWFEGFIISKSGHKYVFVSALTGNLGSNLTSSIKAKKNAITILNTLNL

Structure (SMILES)	MIC ([1]; Escherichia coli, read-out: MIC alone, E. coli expressing CTX-M-15) [µg/mL]	MIC ([2]; Enterobacter cloacae, read-out: MIC alone, E. cloacae expressing Class C P99) [µg/mL]	IC50 [3] [nM]	IC50 [4] [nM]	IC50 [5] [nM]	IC50 [6] [nM]	IC50 [7] [nM]	MIC of example compound in presence of fixed β-lactam: Fixed CAZ, E. coli ESBL4 CTX-M-15 [1]	MIC of example compound in presence of fixed β-lactam: Fixed CAZ, E. cl. 144200 p99 AmpC [2]	MIC of example compound in presence of fixed β-lactam: Fixed Mero, P. aerug. Ps296 VIM-2 [8]	MIC of example compound in presence of fixed β-lactam: Fixed Mero, K. P. A-1797 KPC-2 VIM-4 [9]	MIC of example compound in presence of fixed β-lactam: Fixed Pip, S. aureus MSSA-7 PC-1 [10]	MIC of example compound in presence of fixed β-lactam: Fixed Mero, K. P. 156319 KPC-3 [11]
CC(C)(O/N=C(\C(=O)N[C@@H]1C(=O)N2C(C(=O)[O-])=C(C[n+]3ccccc3)CS[C@H]12)c1csc(N)n1)C(=O)O [Ceftazidime, reference compound]	> 128	128	–	–	–	–	–	–	–	–	–	–	–
NC1CCN(CC(=O)N[C@H]2Cc3cccc(C(=O)O)c3OB2O)CC1 [Example 1, 3-[2-(4-Amino-piperidin-1-yl)-acetylamino]-2-hydroxy-3,4-dihydro-2H-benzo[e][1,2]oxaborinine-8-carboxylic acid]	–	–	< 100	< 100	10000 to 100000	< 100	100 to 1000	C (the MIC in the presence of <4 μg/mL of a β-lactamase inhibitor)	B (the MIC in the presence of between 8 and 32 μg/mL of a β-lactamase inhibitor)	A (an MIC of the fixed β-lactam antibiotic in the presence of >32 μg/mL of a β-lactamase inhibitor)	A (an MIC of the fixed β-lactam antibiotic in the presence of >32 μg/mL of a β-lactamase inhibitor)	C (the MIC in the presence of <4 μg/mL of a β-lactamase inhibitor)	–
N=C(N)N1CCC(CC(=O)N[C@H]2Cc3cccc(C(=O)O)c3OB2O)CC1 [Example 33, 3-[2-(1-Carbamimidoyl-piperidin-4-yl)-acetylamino]-2-hydroxy-3,4-dihydro-2H-benzo[e][1,2]oxaborinine-8-carboxylic acid]	–	–	< 100	100 to 1000	1000 to 10000	< 100	–	C (the MIC in the presence of <4 μg/mL of a β-lactamase inhibitor)	C (the MIC in the presence of <4 μg/mL of a β-lactamase inhibitor)	A (an MIC of the fixed β-lactam antibiotic in the presence of >32 μg/mL of a β-lactamase inhibitor)	B (the MIC in the presence of between 8 and 32 μg/mL of a β-lactamase inhibitor)	C (the MIC in the presence of <4 μg/mL of a β-lactamase inhibitor)	B (the MIC in the presence of between 8 and 32 μg/mL of a β-lactamase inhibitor)
